Laboratory results from patent publication US20130096310A1, “ISOQUINOLINE DERIVATIVE” (TAISHO PHARMACEUTICAL CO., LTD., priority 2010, published 2013).

Target: T1, CRTH2 (Homo sapiens, UniProt Q9Y5Y4)
T1 construct: expressed in transfected cells; host or cells: KB8 cells (human)
T1 sequence (Q9Y5Y4 1-395): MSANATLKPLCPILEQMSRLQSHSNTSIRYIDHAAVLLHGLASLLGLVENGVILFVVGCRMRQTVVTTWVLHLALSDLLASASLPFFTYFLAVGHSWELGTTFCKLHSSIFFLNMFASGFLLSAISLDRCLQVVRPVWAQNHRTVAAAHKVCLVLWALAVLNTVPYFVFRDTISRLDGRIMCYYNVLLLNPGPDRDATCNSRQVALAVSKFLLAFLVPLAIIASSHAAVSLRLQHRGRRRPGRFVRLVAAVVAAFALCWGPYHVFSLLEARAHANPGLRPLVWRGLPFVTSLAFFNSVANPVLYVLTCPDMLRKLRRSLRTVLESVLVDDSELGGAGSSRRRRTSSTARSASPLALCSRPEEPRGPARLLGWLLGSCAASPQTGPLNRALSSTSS
Test: CRTH2 antagonist test: inhibition of PGD2-induced intracellular calcium ion concentration increase in KB8 cells
Format: cell-based
Settings: KB8 cells (human cells expressing CRTH2); PGD2 final concentration 100 nM; Fluo-4-AM, FDSS6000
Experimental: The antagonist activity of the compound of the present invention was considered by using the intracellular calcium ion concentration increase reaction induced when the prostaglandin D2 was added to KB8 cells, which are human cells on which CRTH2 is expressed.
Fluo-4-AM (SIGMA, final concentration: 1 μM) was added to KB8 cells, and the cells were incubated at 37° C. for 30 minutes, washed with phosphate buffer (Invitrogen), and then suspended in Hank's balanced salt solution (Invitrogen) containing a reaction buffer solution (10 mM HEPES (Invitrogen), and 1 mM calcium chloride (SIGMA)). The suspension was dispensed in a 96 well plate (Nunc) so that 2×10^5 cells/well were placed, and the compound of the present invention and PGD2 (final concentration: 100 nM) were added. The fluorescence intensity thereof was measured over time by using FDSS6000 (Hamamatsu Photonics), and thus the maximum fluorescence intensity value “d” was obtained. The same procedure was carried out in the absence of the compound, and the maximum fluorescence intensity value “e” was obtained; and the same procedure was carried out in the absence of the compound and in […], and the maximum fluorescence intensity value “f” was obtained.
The calcium ion concentration increase inhibition rate of a compound was calculated by the following calculation equation:
Inhibitory rate(%)=[1−(d−f)/(e−f)]×100
That is to say, by using calcium ion concentration increase inhibitory rates of compounds to be tested having various concentrations, the IC50 value was calculated according to a dose-dependent inhibition curve analyzed by using XLfit (IDBS) as a data analysis software, and the value was defined as an indicator of the antagonist activity.

Row | Compound | IC50
1 | CC(c1ccc(C(=O)NCCc2ccc(Cl)cc2)cc1)c1ncc(CC(=O)O)c2ccccc12 (stereo not shown) [Example 1, {1-[1-(4-{[2-(4-chlorophenyl)ethyl]carbamoyl}phenyl)ethyl]isoquinolin-4-yl}acetic acid] | 0.0044 µM
2 | O=C(O)Cc1cnc(C(F)(F)c2ccc(C(=O)NCCc3ccc(Cl)cc3)cc2)c2ccccc12 [Example 2, {1-[(4-{[2-(4-chlorophenyl)ethyl]carbamoyl}phenyl)(difluoro)methyl]isoquinolin-4-yl}acetic acid] | 0.036 µM
3 | COc1cc(Cc2ncc(CC(=O)O)c3ccccc23)ccc1C(=O)NCCc1ccc(Cl)cc1 [Example 3, [1-(4-{[2-(4-chlorophenyl)ethyl]carbamoyl}-3-methoxybenzyl)isoquinolin-4-yl]acetic acid] | 0.017 µM
4 | O=C(O)Cc1cnc(Cc2ccc(C(=O)NCCc3ccc(Cl)cc3)cc2F)c2ccccc12 [Example 4, [1-(4-{[2-(4-chlorophenyl)ethyl]carbamoyl}-2-fluorobenzyl)isoquinolin-4-yl]acetic acid] | 0.015 µM
5 | Cc1cc(Cc2ncc(CC(=O)O)c3ccccc23)ccc1C(=O)NCCc1ccc(Cl)cc1 [Example 5, [1-(4-{[2-(4-chlorophenyl)ethyl]carbamoyl}-3-methylbenzyl)isoquinolin-4-yl]acetic acid] | 0.042 µM
6 | O=C(O)Cc1cnc(Cc2ccc(C(=O)NCCc3ccc(Cl)cc3)c(F)c2)c2ccccc12 [Example 6, [1-(4-{[2-(4-chlorophenyl)ethyl]carbamoyl}-3-fluorobenzyl)isoquinolin-4-yl]acetic acid] | 0.0087 µM
7 | O=C(O)Cc1cnc(Cc2ccc(C(=O)NCCc3ccc(Cl)cc3)c(C(F)(F)F)c2)c2ccccc12 [Example 7, {1-[4-{[2-(4-chlorophenyl)ethyl]carbamoyl}-3-(trifluoromethyl)benzyl]isoquinolin-4-yl}acetic acid] | 0.014 µM
